The text below walks through data of the OligoGym collection.

Only the 19 paired bases of each siRNA are shown; overhangs and chemistry are not given here.
Also: test concentration or dose not given here.

In the first series the target is firefly luciferase. Kind of series: five studies, different assays. Conditions: siRNA.
As for “sense GAUUACGUCGCCAGUCAAG / antisense CUUGACUGGCGACGUAAUC”, the target inhibition came out at 96%.
Take “sense GAUUAUGUCCGGUUAUGUA / antisense UACAUAACCGGACAUAAUC”: the target inhibition came out at 96.8%.
The same measure, in the same setting: under “sense GAUUUCGAGUCGUCUUAAU / antisense AUUAAGACGACUCGAAAUC” stands 98.9%; under “sense GCAAGAAAAAUCAGAGAGA / antisense UCUCUCUGAUUUUUCUUGC”, 95.1%; under “sense GCACGGAAAGACGAUGACG / antisense CGUCAUCGUCUUUCCGUGC”, 39.2%.
Same read-out and setting: the same measure for “sense GCACUCUGAUUGACAAAUA / antisense UAUUUGUCAAUCAGAGUGC”: 93%; for “sense GCAUGCCAGAGAUCCUAUU / antisense AAUAGGAUCUCUGGCAUGC”: 94.5%.
On the same count and under the same terms, under “sense GCCGCCGUUGUUGUUUUGG / antisense CCAAAACAACAACGGCGGC” stands 13.8%; under “sense GCCUGAAGUCUCUGAUUAA / antisense UUAAUCAGAGACUUCAGGC”, 95.6%.
For “sense GCGCGGAGGAGUUGUGUUU / antisense AAACACAACUCCUCCGCGC”, the target inhibition came out at 86.8%.
The same measure, in the same setting: the same measure for “sense GCGGAGGAGUUGUGUUUGU / antisense ACAAACACAACUCCUCCGC”: 92.3%; for “sense GCUUCGAGCAGACAUGAUA / antisense UAUCAUGUCUGCUCGAAGC”: 97.7%.
The same measure, in the same setting: under “sense GGAAAAAGAGAUCGUGGAU / antisense AUCCACGAUCUCUUUUUCC” stands 91.3%.
Same read-out and setting: the same measure for “sense GGAAAACUCGACGCAAGAA / antisense UUCUUGCGUCGAGUUUUCC”: 92.7%.
Turning to “sense GGAAAGACGAUGACGGAAA / antisense UUUCCGUCAUCGUCUUUCC”, the target inhibition turned out to be 87.6%.
With “sense GGAGGAGUUGUGUUUGUGG / antisense CCACAAACACAACUCCUCC”, the target inhibition was found to be 93.2%.
Same read-out and setting: the same measure for “sense GGAUGGAUGGCUACAUUCU / antisense AGAAUGUAGCCAUCCAUCC”: 97.4%; for “sense GGGCGCGGUCGGUAAAGUU / antisense AACUUUACCGACCGCGCCC”: 93.6%; for “sense GGUAAAGUUGUUCCAUUUU / antisense AAAAUGGAACAACUUUACC”: 94.5%.
Same read-out and setting: under “sense GGUGAACUUCCCGCCGCCG / antisense CGGCGGCGGGAAGUUCACC” stands 14.5%.
Turning to “sense GGUUUUGGAAUGUUUACUA / antisense UAGUAAACAUUCCAAAACC”, the target inhibition was determined as 93.3%.
On the same count and under the same terms, under “sense GUAACAACCGCGAAAAAGU / antisense ACUUUUUCGCGGUUGUUAC” stands 85.5%; under “sense GUACCGAAAGGUCUUACCG / antisense CGGUAAGACCUUUCGGUAC”, 80.4%.
Still for that read-out and setting: the same measure for “sense GUCGCCAGUCAAGUAACAA / antisense UUGUUACUUGACUGGCGAC”: 44.9%; for “sense GUCGCUCUGCCUCAUAGAA / antisense UUCUAUGAGGCAGAGCGAC”: 69.9%; for “sense GUCUUACCGGAAAACUCGA / antisense UCGAGUUUUCCGGUAAGAC”: 61%.
On the same count and under the same terms, under “sense GUGUUGGGCGCGUUAUUUA / antisense UAAAUAACGCGCCCAACAC” stands 91.9%.
Regarding “sense GUUGGCAGAAGCUAUGAAA / antisense UUUCAUAGCUUCUGCCAAC”, the target inhibition came out at 93.1%.
Same read-out and setting: the same measure for “sense GUUGUGUUUGUGGACGAAG / antisense CUUCGUCCACAAACACAAC”: 90.1%.
Same read-out and setting: the same measure for “sense GUUGUUGUUUUGGAGCACG / antisense CGUGCUCCAAAACAACAAC”: 32.6%; for “sense GUUUUGGAGCACGGAAAGA / antisense UCUUUCCGUGCUCCAAAAC”: -27.8%; for “sense UAAAGAAAGGCCCGGCGCC / antisense GGCGCCGGGCCUUUCUUUA”: 5.9%.
On the same count and under the same terms, the same measure for “sense UACCGGAAAACUCGACGCA / antisense UGCGUCGAGUUUUCCGGUA”: 95.9%.
For the substance “sense UACUACACUCGGAUAUUUG / antisense CAAAUAUCCGAGUGUAGUA”, the target inhibition was 38.6%.
Still for that read-out and setting: under “sense UAUGCCGGUGUUGGGCGCG / antisense CGCGCCCAACACCGGCAUA” stands 19.7%; under “sense UCAAGUAACAACCGCGAAA / antisense UUUCGCGGUUGUUACUUGA”, 88.5%.
Regarding “sense UCAGAGAGAUCCUCAUAAA / antisense UUUAUGAGGAUCUCUCUGA”, the target inhibition is 92.1%.
With “sense UCCCGCCGCCGUUGUUGUU / antisense AACAACAACGGCGGCGGGA”, the target inhibition worked out at 43.8%.
On to “sense UCCGGAAGCGACCAACGCC / antisense GGCGUUGGUCGCUUCCGGA”, for which the target inhibition was 89.7%.
Regarding “sense UGAACUUCCCGCCGCCGUU / antisense AACGGCGGCGGGAAGUUCA”, the target inhibition turned out to be 63.3%.
Still for that read-out and setting: under “sense UGAAGUCUCUGAUUAAGUA / antisense UACUUAAUCAGAGACUUCA” stands 91.9%; under “sense UGACGGAAAAAGAGAUCGU / antisense ACGAUCUCUUUUUCCGUCA”, 88.8%.
The same measure, in the same setting: under “sense UGGAAGAUGGAACCGCUGG / antisense CCAGCGGUUCCAUCUUCCA” stands 16.6%; under “sense UGGACGAAGUACCGAAAGG / antisense CCUUUCGGUACUUCGUCCA”, 70.3%; under “sense UGGAGCACGGAAAGACGAU / antisense AUCGUCUUUCCGUGCUCCA”, 52.2%.
Still for that read-out and setting: the same measure for “sense UGGAUUACGUCGCCAGUCA / antisense UGACUGGCGACGUAAUCCA”: 93.6%.
For the substance “sense UGUAAACAAUCCGGAAGCG / antisense CGCUUCCGGAUUGUUUACA”, the target inhibition was 9.91%.
On the same count and under the same terms, under “sense UGUGGACGAAGUACCGAAA / antisense UUUCGGUACUUCGUCCACA” stands 77.8%; under “sense UGUGUUUGUGGACGAAGUA / antisense UACUUCGUCCACAAACACA”, 90.8%.
Still for that read-out and setting: the same measure for “sense UGUUGUUUUGGAGCACGGA / antisense UCCGUGCUCCAAAACAACA”: 82.5%; for “sense UGUUUGUGGACGAAGUACC / antisense GGUACUUCGUCCACAAACA”: 35.9%; for “sense UUACGUCGCCAGUCAAGUA / antisense UACUUGACUGGCGACGUAA”: 92.9%.
As for “sense UUCUGAUUACACCCGAGGG / antisense CCCUCGGGUGUAAUCAGAA”, the target inhibition is 10.7%.
On the same count and under the same terms, the same measure for “sense UUGCGCGGAGGAGUUGUGU / antisense ACACAACUCCUCCGCGCAA”: 24.9%.
The same measure, in the same setting: under “sense UUGUUUUGGAGCACGGAAA / antisense UUUCCGUGCUCCAAAACAA” stands 89.2%; under “sense UUUGGAGCACGGAAAGACG / antisense CGUCUUUCCGUGCUCCAAA”, -10.4%; under “sense UUUGUGGACGAAGUACCGA / antisense UCGGUACUUCGUCCACAAA”, -18%.

For the next series, the target named is PPIB. In words: five studies, different assays. The note with it: siRNA.
For “sense AAAAACAGCAAAUUCCAUC / antisense GAUGGAAUUUGCUGUUUUU”, the target inhibition came to 7.6%.
Same read-out and setting: under “sense AAAACAGUGGAUAAUUUUG / antisense CAAAAUUAUCCACUGUUUU” stands 49.5%.
Same read-out and setting: the same measure for “sense AAACAGCAAAUUCCAUCGU / antisense ACGAUGGAAUUUGCUGUUU”: 7.3%.
On the same count and under the same terms, the same measure for “sense AAAGAGCAUCUACGGUGAG / antisense CUCACCGUAGAUGCUCUUU”: 50.7%; for “sense AACAGUGGAUAAUUUUGUG / antisense CACAAAAUUAUCCACUGUU”: 16.3%; for “sense AACUUCAAACUGAAGCACU / antisense AGUGCUUCAGUUUGAAGUU”: 69.2%.
For the substance “sense AAGGAUUUGGCUACAAAAA / antisense UUUUUGUAGCCAAAUCCUU”, the target inhibition is 81.9%.
The same measure, in the same setting: the same measure for “sense AAUUCCAUCGUGUAAUCAA / antisense UUGAUUACACGAUGGAAUU”: 87.4%; for “sense AAUUUUGUGGCCUUAGCUA / antisense UAGCUAAGGCCACAAAAUU”: 81.3%.
The same measure, in the same setting: under “sense ACAAAAACAGCAAAUUCCA / antisense UGGAAUUUGCUGUUUUUGU” stands 78.5%.
On the same count and under the same terms, the same measure for “sense ACAGCAAAUUCCAUCGUGU / antisense ACACGAUGGAAUUUGCUGU”: 91.9%.
“sense ACAGGAGAGAAAGGAUUUG / antisense CAAAUCCUUUCUCUCCUGU”: the target inhibition was found to be 84.9%.
On to “sense ACAGGAGGAAAGAGCAUCU / antisense AGAUGCUCUUUCCUCCUGU”, for which the target inhibition came out at 74.5%.
The same measure, in the same setting: the same measure for “sense ACUUCACCAGGGGAGAUGG / antisense CCAUCUCCCCUGGUGAAGU”: 41.9%; for “sense AGAACUUCAAACUGAAGCA / antisense UGCUUCAGUUUGAAGUUCU”: 45.4%.
Still for that read-out and setting: the same measure for “sense AGACUUCACCAGGGGAGAU / antisense AUCUCCCCUGGUGAAGUCU”: 87.6%; for “sense AGAGCAUCUACGGUGAGCG / antisense CGCUCACCGUAGAUGCUCU”: 71.7%.
On the same count and under the same terms, under “sense AGCAAAUUCCAUCGUGUAA / antisense UUACACGAUGGAAUUUGCU” stands 86.4%; under “sense AGCAUCUACGGUGAGCGCU / antisense AGCGCUCACCGUAGAUGCU”, 64.1%.
In the case of “sense AGCUACAGGAGAGAAAGGA / antisense UCCUUUCUCUCCUGUAGCU”, the target inhibition was 75.8%.
The same measure, in the same setting: under “sense AGGACUUCAUGAUCCAGGG / antisense CCCUGGAUCAUGAAGUCCU” stands 82.9%.
“sense AGGAGAGAAAGGAUUUGGC / antisense GCCAAAUCCUUUCUCUCCU”: the target inhibition came out at 88.4%.
Take “sense AGGAGGAAAGAGCAUCUAC / antisense GUAGAUGCUCUUUCCUCCU”: the target inhibition stood at 58.9%.
